Assay results published in patent US6197818A, “Drug for treating diabetic nephrosis” (Nanjing General Hospital of Nanjing Command, PLA, priority 1999, dated 2001).

Assays:
[1] = tolerability of oral rhein in volunteers; assay type: in vivo, human volunteers
Description: Of the thirty-six volunteers given rhein at dose of 200 mg/day (100 mg, b.i.d) for 3 days, only 5 persons experience gastro-intestinal disorders. Diarrhea occurred twice or thrice a day in three of these persons, and four times in only one person.

diabetic nephropathy = experiment: Clinical trial of rhein on diabetic nephropathy; assay type: in vivo, human diabetic patients
Description: Twenty-five diabetic patients diagnosed according to the standard of WHO where enrolled in this study. The fast blood glucose levels were above 250 mg/100 ml in these patients. Diabetic nephropathy was confirmed morphologically by renal biopsy, or with measurement of urinary protein or albumin excretion in each patient.
A yellow powder supplied in capsula containing 25 mg rhein. The dosage of 100 mg per day (50 mg twice a day) rhein was given orally as therapy. All patients were followed at regular intervals for measurement of serum creatinine values and urinary protein or albumin excretion at least for 3 months.

[2] = system: Diabetic animal model of rat; experiment: Suppression of renal hypertrophy by rhein in experimental diabetic rats (streptozotocin); assay type: in vivo, SD rats; settings: for blood glucose level / Kidney Index (kidney weight/body weight ratio) / Kidney Volume / Kidney Weight: rhein-treated 2 mg/Kg/day; for Kidney Index (kidney weight/body weight ratio) / Kidney Volume / Kidney Weight: 12th week
Description: The concentration of rhein is 0.2 g/L.
Rats were made diabetic by an intra-abdominal injection of Streptozotocin (Sigma Chemical Co.; in 0.1 mmol/L citrate buffer, pH 4.5) in a dose of 25 mg/Kg/day for 5 days.
(§1) The observation was focused on the changes of kidney weight and volume in diabetic rats treated by rhein.

[3] = pharmacokinetic study of oral rhein, blood level; assay type: in vivo, human (volunteers)
Description: The blood level of rhein still kept at 200 to 500 ng/ml at 24th hour in volunteers.

[4] = solubility and stability of rhein; assay type: physicochemical
Text: It remains steady in room temperature for more than one year. The general formula of rhein or the salt thereof is shown as the following: [drawing 2]

SD rats = experiment: acute toxicity, half lethal dose (LD50); assay type: in vivo; settings: natural product
[5] = acute toxicity, half lethal dose (LD50); assay type: in vivo; settings: rat, in vivo; SD rats
[6] = system: Diabetic animal model of rat; experiment: Suppression of renal hypertrophy by sodium rheinate in experimental diabetic rats (streptozotocin); assay type: in vivo, SD rats; settings: for blood glucose level / Kidney Index (kidney weight/body weight ratio) / Kidney Weight: treated 1 mg/Kg/day Rhein-Na; for Kidney Index (kidney weight/body weight ratio) / Kidney Weight: 12th week
Description: Drug: aqueous solution of sodium rheinate at concentration of 0.1 g/L for oral
Diabetic animal model of rat: Adult female SD rats (Experimental Animal Center, Jinling Hospital, Nanjing) with body weights of 200 to 250 grams were used. Rats were made diabetic by an intra-abdominal injection of Streptozotocin (Sigma Chemical Co.; in 0.1 mmol/L citrate buffer, pH 4.5) in a dose of 25 mg/Kg/day for 5 days. Only rats with blood glucose level within the range of 13 to 25 mmol/L were recognized as the establishment of the diabetic mode.
as §1
The experiment was designed as the following:
Normal rats Diabetic rats
Control treated Control treated
Dosage of Rhein-Na, 0 1 0 1
Distilled water, ml/Kg/day 5 5 5 5

[7] = system: kidney damage caused by diabetes; settings: cited from earlier work
[8] = of thirty-six volunteers, 200 mg/day (100 mg, b.i.d) for 3 days
[9] = Treatment after 3 months, 100 mg per day
[10] = of twenty-five, 100 mg per day, three months
[11] = patients treated with rhein, 100 mg per day
[12] = diabetic rats, 1 week after diabetic
[13] = diabetic rats, 4 weeks after diabetic
[14] = diabetic rats, pre-diabetic (baseline)
[15] = experimental diabetic rats, oral

O=C(O)c1cc(O)c2c(c1)C(=O)c1cccc(O)c1C2=O [rhein]
persons experiencing gastro-intestinal disorders [1, 8]: 5 persons
persons with diarrhea four times a day [1, 8]: one
persons with diarrhea twice or thrice a day [1, 8]: three
gastro-intestinal reactions (in words) ([1]; oral route, volunteers): not marked gastro-intestinal reactions
gastro-intestinal reactions as vomiting, diarrhea et al. (diabetic nephropathy; 100 mg per day): None
share of patients with obvious decrement of urinary protein excretion (diabetic nephropathy; 18 of twenty-five, 100 mg per day, three months): 72%
Change of urinary protein excretion: Decrease of 25% (diabetic nephropathy; [9]): 5 No.
Change of urinary protein excretion: Decrease of 50% (diabetic nephropathy; [9]): 9 No.
Change of urinary protein excretion: Decrease of 75% (diabetic nephropathy; [9]): 4 No.
Change of urinary protein excretion: No change (diabetic nephropathy; [9]): 7 No.
tolerability (in words) (diabetic nephropathy; all patients, 100 mg per day): tolerated
urinary albumin excretion (in words) (diabetic nephropathy; diabetic nephropathy patients): ameliorate the urinary albumin excretion significantly
urinary protein excretion (in words) (diabetic nephropathy; diabetic patients): could decrease the urinary protein excretion
patients with no change or increase of urinary protein excretion (diabetic nephropathy; [10]): seven
patients with obvious decrement of urinary protein excretion (diabetic nephropathy; [10]): 18 patients
Blood routine test (diabetic nephropathy; [11]): normal
liver function and renal function (diabetic nephropathy; [11]): no liver function abnormally and deterioration of renal function
kidney index (in words) ([2]; diabetic rats): decrease the kidney index (kidney weight/body weight ratio) obviously
renal hypertrophy (in words) ([2]; diabetic rats): able to control or suppress renal hypertrophy
blood glucose level [2, 12]: 20.32 mmol/L
blood glucose level [2, 13]: 19.77 mmol/L
blood glucose level ([2]; diabetic rats, 8 weeks after diabetic): 21.00 mmol/L
Kidney Index (kidney weight/body weight ratio) ([2]; diabetic rats): 4.76 ×10^-3
Kidney Volume ([2]; diabetic rats): 0.834 mL
Kidney Weight ([2]; diabetic rats): 0.93 grams
blood glucose level ([2]; diabetic rats, 12 weeks after diabetic): 19.32 mmol/L
blood glucose level [2, 14]: 6.23 mmol/L
hyperglycemia (in words) [2, 15]: controlled or reduced effectively
blood glucose level ([2]; normal rats, 1 week): 5.92 mmol/L
blood glucose level ([2]; normal rats, 4 weeks): 5.66 mmol/L
blood glucose level ([2]; normal rats, 8 weeks): 6.07 mmol/L
Kidney Index (kidney weight/body weight ratio) ([2]; normal rats): 4.04 ×10^-3
Kidney Volume ([2]; normal rats): 0.804 mL
Kidney Weight ([2]; normal rats): 0.72 grams
blood glucose level ([2]; normal rats, 12 weeks): 6.22 mmol/L
blood glucose level ([2]; normal rats, pre-diabetic): 6.12 mmol/L
concentration at 24 h ([3]; human, blood, po, 24th hour, volunteers, single dose of 200 mg): 200 to 500 ng/mL
time to peak blood level ([3]; one single dose of 200 mg, health man): one and half hours to three
absorption from gastro-intestinal trace ([3]; oral): easily absorbed
maintenance of blood concentration ([3]; oral): maintains for a longer period
solubility in organic solvent ([4]; organic solvent): soluble in organic solvent
stability (remains steady) ([4]; room temperature): more than one
solubility in water ([4]; water): soluble slightly in water
toxicity (in words) (SD rats): low toxicity and safe for therapy
LD50 [5]: 3200 mg/kg

O=C(O)c1cc(O)c2c(c1)C(=O)c1cccc(O)c1C2=O [sodium rheinate]
blood glucose level [6, 12]: 21.82 mmol/L
blood glucose level [6, 13]: 19.97 mmol/L
Kidney Index (kidney weight/body weight ratio) ([6]; diabetic rats): 5.68 ×10^-3
Kidney Weight ([6]; diabetic rats): 0.71 grams
blood glucose level [6, 14]: 6.17 mmol/L
hyperglycemia (in words) [6, 15]: controlled or reduced effectively
blood glucose level ([6]; normal rats, 1 week): 6.52 mmol/L
blood glucose level ([6]; normal rats, 4 weeks): 6.48 mmol/L
Kidney Index (kidney weight/body weight ratio) ([6]; normal rats): 4.34 ×10^-3
Kidney Weight ([6]; normal rats): 0.59 grams
blood glucose level ([6]; normal rats, pre-diabetic): 6.06 mmol/L

insulin: the main medicament for its treatment is insulin at present
effect on urinary glucose [7]: can decrease the urinary glucose
effect on kidney damage caused by diabetes ([7]; such as renal hypertrophy): no therapeutic effect
